Like-named read-outs stand apart in the source and are kept apart here. No end group written: not given here.

Some targets named below: HLA-DR DRB1*0901 (DR9) (Homo sapiens, UniProt P01903+P01911, A100R/A103E/D57H/D86V/F55Y/F60I/F76Y/I96F/K127E/L162R/M171V/P40D/Q125H/Q99R/R33Q/R42F/S133A/S66N/T210M/V115G/W38K/Y107V/Y59G/Y89S); HLA-DR DRB1*0405 (DR4) (Homo sapiens, UniProt P01903+P01911, A100R/A169T/D86S/F76Y/I96L/K127E/L162R/M171V/N62H/P40V/Q125Y/R42H/S133A/S149N/S66Y/V115G/V209L/W38E); HLA-DR DRB1*0101 (DR1) (Homo sapiens, UniProt P01903+P01911, A100R/D57E/F55L/F60I/F76Y/I96L/L162R/M171V/P40L/Q125E/R42F/V115G/Y59C); HLA-DR DRB1*0701 (DR7) (Homo sapiens, UniProt P01903+P01911, A100R/A102G/A103Q/D57E/D86V/E43K/F76Y/K127E/L162R/M171V/P40G/Q125H/Q99D/R33Q/R42Y/R54Q/S133A/S66F/T210M/V115G/Y107V/Y59L/Y89S); HLA-DR DRB1*0401 (DR4) (Homo sapiens, UniProt P01903+P01911, A100K/A169T/F76Y/I96L/K127E/L162R/M171V/N62H/P40V/Q125Y/R42H/S133A/S149N/S66Y/V115G/V209L/W38E).

Holding throughout (assay): biochemical
Holding throughout (type): binding

Another experiment addresses HLA-DR DRB1*1101 (DR11) (Homo sapiens, UniProt P01903+P01911, A100R/A169T/A87E/I96F/K41T/L162R/M171V/P40S/Q125H/Q178H/Q39Y/Q99D/R42S/S66Y/T262R/V115G/W38E). The conditions noted are these: DRB1 *1101.
In another experiment the target is HLA-DR DRB1*1302 (DR13) (Homo sapiens, UniProt P01903+P01911, A100E/A169T/K41T/L162R/M171V/P40S/Q125H/Q178H/Q39Y/Q99D/R42S/S66N/T262R/V115G/W38E/Y61H). The conditions noted are these: DRBI *1302.
The target in a further experiment is HLA-DR DRB5*0101 (DR51) (Homo sapiens, UniProt P01903+Q30154). Conditions: DRB5 *0101.
The next experiment addresses HLA-DR DRB1*1501 (DR15) (Homo sapiens, UniProt P01903+P01911). Conditions: DRBI *1501.
Another experiment concerns the target HLA-DR DRB1*0301 (DR3) (Homo sapiens, UniProt P01903+P01911, A100K/A102G/A103R/A169T/F55Y/I96L/K41T/L162R/M171V/P40S/Q125H/Q178H/Q39Y/R42S/S66N/T106N/T262R/W38E/Y61H). Conditions: read-out: DRB1 *0301.
The target in another experiment is HLA-DR DRB4*0101 (DR53) (Homo sapiens, UniProt P01903+P13762, G164S). Conditions: DRB4 *0101.

Chain of HLA-DR DRB1*1302 (DR13) (P01903 26-254 limits assumed, other chains not shown): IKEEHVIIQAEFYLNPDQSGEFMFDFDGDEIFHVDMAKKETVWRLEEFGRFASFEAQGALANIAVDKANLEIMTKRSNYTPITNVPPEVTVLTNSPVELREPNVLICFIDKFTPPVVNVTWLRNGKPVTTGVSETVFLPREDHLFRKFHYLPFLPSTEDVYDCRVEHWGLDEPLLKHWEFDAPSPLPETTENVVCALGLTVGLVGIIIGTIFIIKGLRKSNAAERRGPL
Chain of HLA-DR DRB1*1101 (DR11) (P01903 26-254 limits assumed, other chains not shown): as above
Chain of HLA-DR DRB1*0301 (DR3) (P01903 26-254 limits assumed, other chains not shown): as above

Regarding TEVLDFAFTDLTIVY, the IC50 is above 18 µM against HLA-DR DRB1*1101 (DR11); above 13.1 µM on HLA-DR DRB1*1302 (DR13); 0.349 µM at HLA-DR DRB1*0901 (DR9) (DRB1 *0901); above 62.3 µM against HLA-DR DRB5*0101 (DR51); 871 nM against HLA-DR DRB1*0405 (DR4) (DRB1 *0405); 0.561 µM against HLA-DR DRB1*1501 (DR15). On HLA-DR DRB1*0101 (DR1) (DRB1 *0101), the IC50 was 2.07 µM.
Regarding LTIVYRDDTPHGVCT, the IC50 at HLA-DR DRB1*0701 (DR7) (read-out: DRB1 *0701) is above 72.3 µM; at HLA-DR DRB1*0401 (DR4) (read-out: DRB1 *0401), 23 nM; at HLA-DR DRB1*0301 (DR3), 187 nM; on HLA-DR DRB1*0901 (DR9) (read-out: DRB1 *0901), above 25.3 µM; at HLA-DR DRB1*0405 (DR4) (read-out: DRB1 *0405), above 8590 nM; on HLA-DR DRB1*0101 (DR1) (read-out: DRB1 *0101) it was above 15.4 µM.
In the case of NYSVYGNTLEQTVKK, the IC50 is above 25100 nM on HLA-DR DRB4*0101 (DR53); above 14.6 µM against HLA-DR DRB1*0701 (DR7) (DRB1 *0701); 1930 nM against HLA-DR DRB1*0401 (DR4) (DRB1 *0401); above 56.7 µM against HLA-DR DRB1*1101 (DR11); 8.61 µM at HLA-DR DRB1*1302 (DR13); 47.5 µM on HLA-DR DRB1*0901 (DR9) (DRB1 *0901). Further, the IC50 on HLA-DR DRB1*0405 (DR4) (DRB1 *0405) amounted to 822 nM; at HLA-DR DRB1*1501 (DR15), 15.6 µM; against HLA-DR DRB1*0101 (DR1) (DRB1 *0101), 14.1 µM.
Regarding RETLQEIVLHLEPQN, the IC50 against HLA-DR DRB4*0101 (DR53) stood at 95 nM; at HLA-DR DRB1*0701 (DR7) (DRB1 *0701) it was 25.9 µM; against HLA-DR DRB1*0401 (DR4) (DRB1 *0401), 2940 nM; against HLA-DR DRB1*1101 (DR11) it was 7.9 µM; on HLA-DR DRB1*1302 (DR13), 11.4 µM; on HLA-DR DRB1*0901 (DR9) (DRB1 *0901), 19.1 µM. In addition, the IC50 against HLA-DR DRB5*0101 (DR51) was above 55.1 µM; at HLA-DR DRB1*0405 (DR4) (DRB1 *0405), 829 nM; against HLA-DR DRB1*1501 (DR15), 16.2 µM; against HLA-DR DRB1*0101 (DR1) (DRB1 *0101), 1.59 µM.
Take LSFFLKEKGGLDGL: the IC50 at HLA-DR DRB1*0701 (DR7) (read-out: DRB1 *0701) was 20 µM; on HLA-DR DRB1*0301 (DR3), above 341000 nM; on HLA-DR DRB1*0901 (DR9) (read-out: DRB1 *0901), 3.5 µM; at HLA-DR DRB1*0405 (DR4) (read-out: DRB1 *0405) it was 983 nM.
On to QDVVLELTPQTEIDL, for which the IC50 against HLA-DR DRB4*0101 (DR53) is 1720 nM; against HLA-DR DRB1*0401 (DR4) (DRB1 *0401) it was 83 nM; on HLA-DR DRB1*1101 (DR11), above 31.6 µM; against HLA-DR DRB1*0901 (DR9) (DRB1 *0901) it was 1.68 µM; against HLA-DR DRB5*0101 (DR51), above 31.4 µM; against HLA-DR DRB1*0405 (DR4) (DRB1 *0405), 53 nM. At HLA-DR DRB1*1501 (DR15), this sequence displayed an IC50 above 33.1 µM.
Turning to CKFVVQLDIQSTKED [CKFVVQLDIQSTKED], the IC50 against HLA-DR DRB4*0101 (DR53) was 301 nM; against HLA-DR DRB1*0701 (DR7) (DRB1 *0701), 4.55 µM; on HLA-DR DRB1*1101 (DR11), above 31.6 µM; against HLA-DR DRB1*1302 (DR13), above 11.4 µM; against HLA-DR DRB1*0901 (DR9) (DRB1 *0901), 19.3 µM; against HLA-DR DRB5*0101 (DR51), above 31.4 µM. The IC50 against HLA-DR DRB1*0405 (DR4) (DRB1 *0405) was found to be 374 nM; against HLA-DR DRB1*1501 (DR15) it was 22.9 µM.
Consider DFAFADLTVVYREGN, for which the IC50 was 18000 nM on HLA-DR DRB4*0101 (DR53); 1.73 µM against HLA-DR DRB1*0701 (DR7) (DRB1 *0701); 141 nM against HLA-DR DRB1*0401 (DR4) (DRB1 *0401); above 18 µM at HLA-DR DRB1*1101 (DR11); 9.63 µM against HLA-DR DRB1*1302 (DR13); 0.322 µM against HLA-DR DRB1*0901 (DR9) (DRB1 *0901). Moreover, the IC50 on HLA-DR DRB5*0101 (DR51) was determined as 39.8 µM; against HLA-DR DRB1*0405 (DR4) (DRB1 *0405), 60 nM; against HLA-DR DRB1*1501 (DR15) it was 4.92 µM; on HLA-DR DRB1*0101 (DR1) (DRB1 *0101), 3.29 µM.
As to DLFVVYRDSIPHAAC, the IC50 against HLA-DR DRB4*0101 (DR53) is 2680 nM; against HLA-DR DRB1*0701 (DR7) (DRB1 *0701), 5.21 µM; on HLA-DR DRB1*0401 (DR4) (DRB1 *0401), 82 nM; on HLA-DR DRB1*1302 (DR13), 11.2 µM; against HLA-DR DRB1*0901 (DR9) (DRB1 *0901), 2.37 µM; at HLA-DR DRB5*0101 (DR51), 10.7 µM. Further, the values for the IC50 on HLA-DR DRB1*0405 (DR4) (DRB1 *0405) and on HLA-DR DRB1*1501 (DR15) were 3590 nM and 2.83 µM, respectively.
Turning to VFEFAFKDLFVVYRD, the IC50 was 18100 nM at HLA-DR DRB4*0101 (DR53); 7.67 µM on HLA-DR DRB1*1302 (DR13); 16.8 µM against HLA-DR DRB1*0901 (DR9) (DRB1 *0901); above 10.7 µM against HLA-DR DRB5*0101 (DR51); 120 nM against HLA-DR DRB1*0405 (DR4) (DRB1 *0405); 4.87 µM at HLA-DR DRB1*1501 (DR15). Also, the IC50 against HLA-DR DRB1*0101 (DR1) (DRB1 *0101) turned out to be 6.72 µM.
In the case of VPTLQDVVLELTPQT, the IC50 is 1000 nM at HLA-DR DRB4*0101 (DR53); above 35.4 µM against HLA-DR DRB1*0701 (DR7) (DRB1 *0701); 214 nM against HLA-DR DRB1*0401 (DR4) (DRB1 *0401); above 31.6 µM on HLA-DR DRB1*1101 (DR11); 15 µM on HLA-DR DRB1*1302 (DR13); above 30.6 µM at HLA-DR DRB1*0901 (DR9) (DRB1 *0901). The figures for the IC50 at HLA-DR DRB5*0101 (DR51), against HLA-DR DRB1*0405 (DR4) (DRB1 *0405) and on HLA-DR DRB1*0101 (DR1) (DRB1 *0101) were above 31.4 µM, 5410 nM and 16.1 µM, respectively.

These data come from patent US20060079453A1, “Hla binding peptides and their uses” (priority 2002, published 2006).
